From patent publication US10323036B2 (Nimbus Lakshmi, Inc., priority 2016, dated 2019)
Read-outs that look alike come from different tables or passages of the source.

Target: human TYK2 (JH2domain-pseudokinase) (Homo sapiens (Human), UniProt P29597)
Assay: TYK2 JH2 Domain Binding Assay (KINOMEscan)
Conditions: read-out: JH2 Kd

Sequence of human TYK2 (JH2domain-pseudokinase) (P29597 556-888): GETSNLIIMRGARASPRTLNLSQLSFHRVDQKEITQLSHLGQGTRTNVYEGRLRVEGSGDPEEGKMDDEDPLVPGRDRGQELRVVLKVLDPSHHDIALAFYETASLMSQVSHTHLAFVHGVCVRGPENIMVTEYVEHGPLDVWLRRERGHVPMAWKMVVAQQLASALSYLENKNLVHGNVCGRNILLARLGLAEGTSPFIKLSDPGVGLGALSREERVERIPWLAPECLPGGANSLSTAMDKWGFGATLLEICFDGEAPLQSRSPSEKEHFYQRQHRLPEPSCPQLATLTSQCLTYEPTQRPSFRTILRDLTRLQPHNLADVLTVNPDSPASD

## CCn1cc(-c2cccc(-c3nnn(C)n3)c2OC)c2cc(NC(=O)C3CC3)ncc21 [XVI-6, N-(1-ethyl-3-(2-methoxy-3-(2-methyl-2H-tetrazol-5-yl)phenyl)-1H-pyrrolo[2,3-c]pyridin-5-yl)cyclopropanecarboxamide]
Table 5, Tyk2 JH2 Domain Binding Assay
  Kd: 10 to 100 nM

## CCc1ncc(Nc2cc(Nc3cccc(Cl)c3OC)c3c(=O)n(C)[nH]c3n2)nc1C#N [Compound I-147, 6-((4-((3-chloro-2-methoxyphenyl)amino)-2-methyl-3-oxo-2,3-dihydro-1H-pyrazolo[3,4-b]pyridin-6-yl)amino)-3-ethylpyrazine-2-carbonitrile]
Table 4, JH2 binding assay
  Kd: > 10 nM

## CN(c1cc(C(F)(F)F)ccc1Nc1cc(NC(=O)C2CC2)nc2[nH]n(C)c(=O)c12)S(C)(=O)=O [Compound I-235, N-(2-methyl-4-((2-(N-methylmethylsulfonamido)-4-(trifluoromethyl)phenyl)amino)-3-oxo-2,3-dihydro-1H-pyrazolo[3,4-b]pyridin-6-yl)cyclopropanecarboxamide]
Table 4, JH2 binding assay
  Kd: 0.1 to 0.5 nM

## COc1c(Nc2cc(Nc3cc(C)nc(C)n3)nc3[nH]n(C)c(=O)c23)cccc1C(N)=O [Compound I-103, 3-((6-((2,6-dimethylpyrimidin-4-yl)amino)-2-methyl-3-oxo-2,3-dihydro-1H-pyrazolo[3,4-b]pyridin-4-yl)amino)-2-methoxybenzamide]
Table 4, JH2 binding assay
  Kd: > 10 nM

## [2H]C([2H])([2H])n1[nH]c2nc(NC(=O)C3CC3)cc(Nc3cccc(-c4nnn(C)n4)c3OC)c2c1=O [Compound I-100]
Table 4, JH2 binding assay
  Kd: < 0.1 nM

## COc1c(Nc2cc(Nc3ccc(C)cn3)nc3[nH]n(C)c(=O)c23)cccc1-c1ncn(C)n1 [Compound I-16, 4-((2-methoxy-3-(1-methyl-1H-1,2,4-triazol-3-yl)phenyl)amino)-2-methyl-6-((5-methylpyridin-2-yl)amino)-1H-pyrazolo[3,4-b]pyridin-3(2H)-one]
Table 4, JH2 binding assay
  Kd: 0.1 to 0.5 nM

## COc1c(F)cccc1Nc1cc(Nc2cnc(C(C)(C)OC)c(C#N)n2)nc2[nH]n(C)c(=O)c12 [Compound I-190, 6-((4-((3-fluoro-2-methoxyphenyl)amino)-2-methyl-3-oxo-2,3-dihydro-1H-pyrazolo[3,4-b]pyridin-6-yl)amino)-3-(2-methoxypropan-2-yl)pyrazine-2-carbonitrile]
Table 4, JH2 binding assay
  Kd: 0.5 to 1 nM

## COc1c(F)cccc1Nc1cc(Nc2cccc(C(F)(F)F)n2)nc2[nH]n(C)c(=O)c12 [Compound I-86, 4-((3-fluoro-2-methoxyphenyl)amino)-2-methyl-6-((6-(trifluoromethyl)pyridin-2-yl)amino)-1,2-dihydro-3H-pyrazolo[3,4-b]pyridin-3-one]
Table 4, JH2 binding assay
  Kd: 1 to 10 nM

## COc1c(Nc2cc(Nc3ccc(N4CCCC4)cn3)nc3[nH]n(C)c(=O)c23)cccc1-c1nnn(C)n1 [Compound I-58, 4-((2-methoxy-3-(2-methyl-2H-tetrazol-5-yl)phenyl)amino)-2-methyl-6-((5-(pyrrolidin-1-yl)pyridin-2-yl)amino)-1,2-dihydro-3H-pyrazolo[3,4-b]pyridin-3-one]
Table 4, JH2 binding assay
  Kd: > 10 nM

## COc1c(Nc2cc(Nc3ccc(C#N)cn3)nc3[nH]n(C)c(=O)c23)cccc1-c1nnn(C)n1 [Compound I-12, 6-((4-((2-methoxy-3-(2-methyl-2H-tetrazol-5-yl)phenyl)amino)-2-methyl-3-oxo-2,3-dihydro-1H-pyrazolo[3,4-b]pyridin-6-yl)amino)nicotinonitrile]
Table 4, JH2 binding assay
  Kd: < 0.1 nM

## Cn1ccc(Nc2cc(Nc3ccccc3S(C)(=O)=O)c3c(=O)n(C)[nH]c3n2)n1 [Compound I-137, 2-methyl-6-((1-methyl-1H-pyrazol-3-yl)amino)-4-((2-(methylsulfonyl)phenyl)amino)-1,2-dihydro-3H-pyrazolo[3,4-b]pyridin-3-one]
Table 4, JH2 binding assay
  Kd: 0.5 to 1 nM

## Cc1ccc(Nc2cc(Nc3ccc(F)cc3S(C)(=O)=O)c3c(=O)n(C)[nH]c3n2)nn1 [Compound I-198, 4-((4-fluoro-2-(methylsulfonyl)phenyl)amino)-2-methyl-6-((6-methylpyridazin-3-yl)amino)-1,2-dihydro-3H-pyrazolo[3,4-b]pyridin-3-one]
Table 4, JH2 binding assay
  Kd: 0.1 to 0.5 nM

## Cn1[nH]c2nc(NC(=O)[C@@H]3CC3(F)F)cc(Nc3ccc(C4CC4)cc3S(C)(=O)=O)c2c1=O [Compound I-237]
Table 4, JH2 binding assay
  Kd: 1 to 10 nM

## COc1c(F)cccc1Nc1cc(Nc2cccc(C3CC3)n2)nc2[nH]n(C)c(=O)c12 [Compound I-87, 6-((6-cyclopropylpyridin-2-yl)amino)-4-((3-fluoro-2-methoxyphenyl)amino)-2-methyl-1,2-dihydro-3H-pyrazolo[3,4-b]pyridin-3-one]
Table 4, JH2 binding assay
  Kd: 1 to 10 nM

## COc1c(F)cccc1Nc1cc(Nc2cc(C)nc(C)n2)nc2[nH]n(C)c(=O)c12 [Compound I-74, 6-((2,6-dimethylpyrimidin-4-yl)amino)-4-((3-fluoro-2-methoxyphenyl)amino)-2-methyl-1,2-dihydro-3H-pyrazolo[3,4-b]pyridin-3-one]
Table 4, JH2 binding assay
  Kd: 0.1 to 0.5 nM

## COc1c(Nc2cc(Nc3ccc(C#N)cn3)nc3[nH]n(C)c(=O)c23)cccc1-c1ncn(C)n1 [Compound I-25, 6-((4-((2-methoxy-3-(1-methyl-1H-1,2,4-triazol-3-yl)phenyl)amino)-2-methyl-3-oxo-2,3-dihydro-1H-pyrazolo[3,4-b]pyridin-6-yl)amino)nicotinonitrile]
Table 4, JH2 binding assay
  Kd: 0.1 to 0.5 nM

## COc1c(Nc2cc(Nc3ccc(N4CCCCC4)cn3)nc3[nH]n(C)c(=O)c23)cccc1-c1nnn(C)n1 [Compound I-11, 4-((2-methoxy-3-(2-methyl-2H-tetrazol-5-yl)phenyl)amino)-2-methyl-6-((5-(piperidin-1-yl)pyridin-2-yl)amino)-1,2-dihydro-3H-pyrazolo[3,4-b]pyridin-3-one]
Table 4, JH2 binding assay
  Kd: > 10 nM

## COc1c(Nc2cc(Nc3cccc(C#N)n3)nc3[nH]n(C)c(=O)c23)cccc1-c1ncn(C)n1 [Compound I-30, 6-((4-((2-methoxy-3-(1-methyl-1H-1,2,4-triazol-3-yl)phenyl)amino)-2-methyl-3-oxo-2,3-dihydro-1H-pyrazolo[3,4-b]pyridin-6-yl)amino)picolinonitrile]
Table 4, JH2 binding assay
  Kd: > 10 nM

## COc1c(Nc2cc(Nc3ccc(N4CCCCC4)cn3)nc3[nH]n(C)c(=O)c23)cccc1-c1ccn(C)n1 [Compound I-124, 4-((2-methoxy-3-(1-methyl-1H-pyrazol-3-yl)phenyl)amino)-2-methyl-6-((5-(piperidin-1-yl)pyridin-2-yl)amino)-1,2-dihydro-3H-pyrazolo[3,4-b]pyridin-3-one]
Table 4, JH2 binding assay
  Kd: 1 to 10 nM

## COc1c(Nc2cc(Nc3ccc(C)nn3)nc3[nH]n(C)c(=O)c23)cccc1-c1ncn(C)n1 [Compound I-23, 4-((2-methoxy-3-(1-methyl-1H-1,2,4-triazol-3-yl)phenyl)amino)-2-methyl-6-((6-methylpyridazin-3-yl)amino)-1,2-dihydro-3H-pyrazolo[3,4-b]pyridin-3-one]
Table 4, JH2 binding assay
  Kd: > 10 nM

## COc1c(Nc2cc(Nc3ccc(N4CCOCC4)cn3)nc3[nH]n(C)c(=O)c23)cccc1-c1nnn(C)n1 [Compound I-7, 4-((2-methoxy-3-(2-methyl-2H-tetrazol-5-yl)phenyl)amino)-2-methyl-6-((5-morpholinopyridin-2-yl)amino)-1,2-dihydro-3H-pyrazolo[3,4-b]pyridin-3-one]
Table 4, JH2 binding assay
  Kd: 1 to 10 nM

## COc1cc(C(=O)N2CCCC2)ccc1Nc1cc(NC(=O)C2CC2)nc2[nH]n(C)c(=O)c12 [Compound I-70, N-(4-((2-methoxy-4-(pyrrolidine-1-carbonyl)phenyl)amino)-2-methyl-3-oxo-2,3-dihydro-1H-pyrazolo[3,4-b]pyridin-6-yl)cyclopropanecarboxamide]
Table 4, JH2 binding assay
  Kd: 0.1 to 0.5 nM

## Cc1ncc(Nc2cc(Nc3ccc(Cl)cc3S(C)(=O)=O)c3c(=O)n(C)[nH]c3n2)nc1C [Compound I-207, 4-((4-chloro-2-(methylsulfonyl)phenyl)amino)-6-((5,6-dimethylpyrazin-2-yl)amino)-2-methyl-1,2-dihydro-3H-pyrazolo[3,4-b]pyridin-3-one]
Table 4, JH2 binding assay
  Kd: 1 to 10 nM

## COc1c(Nc2cc(NC(=O)C3CC3)nc3[nH]n(C)c(=O)c23)cccc1-c1nc(C)nn1C [Compound I-46, N-(4-((3-(1,3-dimethyl-1H-1,2,4-triazol-5-yl)-2-methoxyphenyl)amino)-2-methyl-3-oxo-2,3-dihydro-1H-pyrazolo[3,4-b]pyridin-6-yl)cyclopropanecarboxamide]
Table 4, JH2 binding assay
  Kd: 0.5 to 1 nM

## Cn1[nH]c2nc(NC(=O)[C@@H]3C[C@@H]3F)cc(Nc3ccc(C4CC4)cc3S(C)(=O)=O)c2c1=O [Compound I-210]
Table 4, JH2 binding assay
  Kd: 0.1 to 0.5 nM

## COc1c(Nc2cc(NC(=O)C3CC3)nc3[nH]n(C)c(=O)c23)cccc1N1CCCC1=O [Compound I-88, N-(4-((2-methoxy-3-(2-oxopyrrolidin-1-yl)phenyl)amino)-2-methyl-3-oxo-2,3-dihydro-1H-pyrazolo[3,4-b]pyridin-6-yl)cyclopropanecarboxamide]
Table 4, JH2 binding assay
  Kd: 1 to 10 nM

## COCc1ccc(Nc2cc(Nc3ccc(C)c(C(F)(F)F)n3)nc3[nH]n(C)c(=O)c23)c(OC)c1 [Compound I-93, 4-((2-methoxy-4-(methoxymethyl)phenyl)amino)-2-methyl-6-((5-methyl-6-(trifluoromethyl)pyridin-2-yl)amino)-1,2-dihydro-3H-pyrazolo[3,4-b]pyridin-3-one]
Table 4, JH2 binding assay
  Kd: 1 to 10 nM

## COCc1ccnc(Nc2cc(Nc3ccccc3S(C)(=O)=O)c3c(=O)n(C)[nH]c3n2)c1 [Compound I-110, 6-((4-(methoxymethyl)pyridin-2-yl)amino)-2-methyl-4-((2-(methylsulfonyl)phenyl)amino)-1,2-dihydro-3H-pyrazolo[3,4-b]pyridin-3-one]
Table 4, JH2 binding assay
  Kd: 1 to 10 nM

## COc1c(Cl)cccc1Nc1cc(Nc2ccc(C)nn2)nc2[nH]n(C)c(=O)c12 [Compound I-105, 4-((3-chloro-2-methoxyphenyl)amino)-2-methyl-6-((6-methylpyridazin-3-yl)amino)-1,2-dihydro-3H-pyrazolo[3,4-b]pyridin-3-one]
Table 4, JH2 binding assay
  Kd: 1 to 10 nM

## COc1c(Cl)cccc1Nc1cc(Nc2cc(C)nc(C)n2)nc2[nH]n(C)c(=O)c12 [Compound I-96, 4-((3-chloro-2-methoxyphenyl)amino)-6-((2,6-dimethylpyrimidin-4-yl)amino)-2-methyl-1,2-dihydro-3H-pyrazolo[3,4-b]pyridin-3-on]
Table 4, JH2 binding assay
  Kd: 0.1 to 0.5 nM

## COc1c(F)cccc1Nc1cc(Nc2ccc(N3CCOCC3)cn2)nc2[nH]n(C)c(=O)c12 [Compound I-89, 4-((3-fluoro-2-methoxyphenyl)amino)-2-methyl-6-((5-morpholinopyridin-2-yl)amino)-1,2-dihydro-3H-pyrazolo[3,4-b]pyridin-3-one]
Table 4, JH2 binding assay
  Kd: 1 to 10 nM
